{
  "source": "paper PMC12298270",
  "about": "“Development and Validation of a New LC-MS/MS Method for Simultaneous Quantification of Ivacaftor, Tezacaftor and Elexacaftor Plasma Levels in Pediatric Cystic Fibrosis Patients” (Pharmaceuticals, 2025)",
  "key": {"[1]": {"experiment": "Plasma levels of IVA, TEZ and ELX by LC-MS/MS in pediatric cystic fibrosis patients at steady state on Kaftrio", "assay_type": "in vivo, human", "conditions": "n = 25 pediatric CF patients, steady state; for Cmax at 4 h: both sexes, human, plasma, oral, 4 h after morning Kaftrio dose", "method": "The clinical performance of our validated method was tested on n = 25 samples from pediatric patients affected by cystic fibrosis. Table 5 reports plasma concentrations of IVA, TEZ and ELX measured before (T0) and 4 h after (T4) the morning dose assumption of Kaftrio® (corresponding to IVA Tmax). For IVA, the plasma concentration at 12 h (T12) was obtained by using C4h*e^−β(t12−t4), and the AUC0–12h was calculated to assess the systemic exposure within the interval between two doses (Table 5). Thereafter, AUC0–12h values were multiplied by 2 in order to perform a regression analysis of T0 concentrations versus AUC0–24h.\nThe clinical applicability of our validated method was tested on n = 25 plasma samples from pediatric patients with a median (range) age of 9.5 (7–17) years and affected by cystic fibrosis (CF). These patients (n = 14 males and n = 11 females) were followed-up during the routine clinical practice at Pneumology and Cystic Fibrosis Unit of Bambino Gesù Children’s Hospital, and were concomitantly receiving therapies with pancreatic enzymes, bronchodilators, antibiotics (including carbapenems, macrolides, beta-lactams, lipopeptides, fluoroquinolones) and proton pump inhibitors.\nIn order to evaluate systemic exposure to each CFTR modulator, drug levels were measured at steady-state by collecting EDTA–whole blood samples before (T0, corresponding to the minimum plasma concentration, Ctrough,) and 4 h after the morning dose intake (T4, corresponding to the maximum concentration, Cmax). After centrifugation at 3500 rcf for 5 min, plasma was recovered from whole blood samples. Plasma samples were collected and stored at −80 °C until analysis.\nAccording to the Kaftrio® summary of product characteristics (SmPC), patients received a morning dose consisting of two ivacaftor 75 mg/tezacaftor, 50 mg/elexacaftor, 100 mg tablets, whereas one ivacaftor 150 mg tablet was taken in the evening (every 12 h).\nElexacaftor/tezacaftor/ivacaftor plasma levels were determined using high-performance liquid chromatography (HPLC) coupled to mass spectrometry (MS/MS). EDTA–whole blood samples were collected before (T0) and 4 h after (T4) morning drug intake. Analysis of Kaftrio® plasma levels was performed at Division of Metabolic Diseases and Drug Biology of Bambino Gesù Children’s Hospital, IRCCS, in Rome (Italy). The liquid chromatography (LC) system consisted of an UHPLC Agilent 1290 Infinity II (Agilent Technologies, Deutschland GmbH, Waldbronn, Germany). Gradient chromatographic separation was performed in reverse phase mode with a Luna Omega 1.60 µm Polar C18 (100 × 2.1 mm) column (Phenomenex) maintained at 40 °C, with mobile phase A (0.1% formic acid (FA) in water) and mobile phase B (0.1% formic acid and 25% of 2-propanol in ACN). The flow rate of mobile phases was 0.4 mL/min. The duration of each chromatographic run was 10.50 min.\nThe volume injected was 1 μL. Detection of IVA, IVA-d9, TEZ, TEZ-d4, ELX and ELX-d3 was carried out using a 6470 Mass Spectrometry system (Agilent Technologies, Deutschland GmbH, Waldbronn, Germany) equipped with an ESI-JET-STREAM source operating in the positive ion (ESI+) mode. Mass spectrometric conditions were as follows: Gas Temperature 350 °C, Gas Flow 9 L/min, Sheath Gas Temperature 300 °C, Sheath Gas Flow 9 L/min, Capillary 4000 V, Nebulizer 35 psi.\nA 10 µL measure of IS working solution with IVA-d9, TEZ-d4 and ELX-d3 was added to 50 µL of plasma or CAL or QC or blank sample in darkened tubes. After vortexing for 5 s, 300 µL of pure ACN were added to each sample. Samples were mixed for 60 s and centrifuged at 13,000 rpm for 9 min at room temperature. Thereafter, 200 µL of supernatant were collected in amber glass vials and injected into the UHPLC-MS/MS system.\nDemographic data and PK parameters were analyzed using descriptive statistics. The median with interquartile range (IQR) was used to describe Ctrough levels. […]"}, "[2]": {"experiment": "Short- and long-term autosampler stability of prepared QC samples at room temperature", "assay_type": "physicochemical", "conditions": "autosampler", "method": "Both short- and long-term stability were evaluated on prepared QC samples kept at room temperature for a maximum of 9 days. After 24 h from QC sample preparation and first assessment (Time 0), the stability was around 100% for all QC samples. […] Autosampler stability was tested by analyzing IVA, TEZ and ELX concentrations in QCs maintained at room temperature at time 0 (corresponding to preparation of QC samples and to the first measurement) and after 24 h (short-term stability) or 9 days (long-term stability). We also evaluated, on prepared low-, medium- and high-QC samples, the stability following one cycle of freezing (−80 °C) and thawing (after 12 days). To further assess long-term stability, n = 3 T0 and T4 of authentic samples, stored at −80 °C over a period of five months, were randomly chosen and re-analyzed. The percentage difference between the concentration measured at each sampling point and the initial concentration was calculated. Based on ICH guideline M10, a percentage difference below the 15% was considered acceptable."}, "[3]": {"experiment": "Stability of prepared QC samples after one cycle of freezing (−80 °C) and thawing", "assay_type": "physicochemical", "conditions": "low-, medium- and high-QC samples, thawed after 12 days", "method": "(§1) We have also evaluated the stability of prepared low-, medium- and high-QC samples following one cycle of freezing (−80 °C) and thawing (after 12 days). The calculated stability for ivacaftor, tezacaftor and elexacaftor was 100–107% after 12 days. Patient samples (n = 3 T0 and T4) were randomly selected and re-analyzed after being stored at −80 °C over a period of five months. Compared to the first measurement (time 0), the stability ranged from 85.48 ± 19.83% (mean ± SD) for IVA T4 to 90.55 ± 2.42% for ELX T0 (Supplementary Table S2). Autosampler stability was tested by analyzing IVA, TEZ and ELX concentrations in QCs maintained at room temperature at time 0 (corresponding to preparation of QC samples and to the first measurement) and after 24 h (short-term stability) or 9 days (long-term stability). We also evaluated, on prepared low-, medium- and high-QC samples, the stability following one cycle of freezing (−80 °C) and thawing (after 12 days). To further assess long-term stability, n = 3 T0 and T4 of authentic samples, stored at −80 °C over a period of five months, were randomly chosen and re-analyzed. The percentage difference between the concentration measured at each sampling point and the initial concentration was calculated. Based on ICH guideline M10, a percentage difference below the 15% was considered acceptable."}, "[4]": {"experiment": "Long-term −80 °C stability of authentic patient plasma samples", "assay_type": "physicochemical, human", "method": "as §1"}, "[5]": {"set-up": "method as in ref 18 = [18]; 18. U.S. Food and Drug Administration Center for Drug Evaluation and Research: Nda/Bla, Multi-Disciplinary Review and Evaluation, Lumacaftor/Ivacaftor Available online: https://www.accessdata.fda.gov/", "conditions": "Trikafta drug registration documents; cited from earlier work"}, "[6]": {"set-up": "method as in PMID 38494378", "conditions": "cited from earlier work"}, "[7]": {"set-up": "method as in PMID 36015300", "conditions": "cited from earlier work"}, "[8]": {"set-up": "method as in PMID 40245791", "conditions": "H-QC, after sample preparation; cited from earlier work"}, "CFTR": {"tested_on": "CFTR", "set-up": "method as in PMID 36015300", "conditions": "cited from earlier work"}, "[9]": {"conditions": "patient plasma n = 3, stored at −80 °C, 5 months vs Time 0"}},
  "note": "Where two headings read alike, the source gives them in different places.",
  "data": [
    {"smiles": "Cc1nn(C)cc1S(=O)(=O)NC(=O)c1ccc(-n2ccc(OCC(C)(C)C(F)(F)F)n2)nc1N1C[C@@H](C)CC1(C)C", "note": "[ELX, Elexacaftor]", "values": [
      {"measurement": "Cmax at 4 h", "setting": "[1]; read-out: Plasma concentration T4 (Cmax), 25th Percentile", "result": 13300, "unit": "ng/mL"},
      {"measurement": "Cmax at 4 h", "setting": "[1]; read-out: Plasma concentration T4 (Cmax), 75th Percentile", "result": 24100, "unit": "ng/mL"},
      {"measurement": "Cmax at 4 h", "setting": "[1]; read-out: Plasma concentration T4 (Cmax), Median", "result": 17800, "unit": "ng/mL"},
      {"measurement": "Plasma concentration T0 (Ctrough), 25th Percentile", "setting": "[1]; before morning Kaftrio dose", "result": 5820, "unit": "ng/mL"},
      {"measurement": "Plasma concentration T0 (Ctrough), 75th Percentile", "setting": "[1]; before morning Kaftrio dose", "result": 12940, "unit": "ng/mL"},
      {"measurement": "Plasma concentration T0 (Ctrough), Median", "setting": "[1]; before morning Kaftrio dose", "result": 8730, "unit": "ng/mL"},
      {"measurement": "Stability (%)", "setting": "[2]; H-QC (18 µg/mL), 24 H vs Time 0", "result": 98.74, "unit": "%"},
      {"measurement": "Stability (%)", "setting": "[2]; H-QC (18 µg/mL), Day 9 vs Time 0", "result": 114.46, "unit": "%"},
      {"measurement": "Stability (%)", "setting": "[2]; L-QC (0.3 µg/mL), 24 H vs Time 0", "result": 101.72, "unit": "%"},
      {"measurement": "Stability (%)", "setting": "[2]; L-QC (0.3 µg/mL), Day 9 vs Time 0", "result": 113.79, "unit": "%"},
      {"measurement": "Stability (%)", "setting": "[2]; M-QC (8 µg/mL), 24 H vs Time 0", "result": 99.76, "unit": "%"},
      {"measurement": "Stability (%)", "setting": "[2]; M-QC (8 µg/mL), Day 9 vs Time 0", "result": 113.09, "unit": "%"},
      {"measurement": "Stability after one cycle of freezing and thawing", "setting": "[3]", "result": "100–107%"},
      {"measurement": "Stability, % of the first measurement", "setting": "[4]; n = 3 T0 and T4 patients' samples, −80 °C, five months", "result": "higher than 85%"},
      {"measurement": "Stability (%) mean ± SD, T0 samples", "setting": "[4]; [9]", "result": "90.55 ± 2.42", "unit": "%"},
      {"measurement": "Stability (%) mean ± SD, T4 samples", "setting": "[4]; [9]", "result": "89.18 ± 18.05", "unit": "%"},
      {"measurement": "Ctrough (Cmin), mean ± SD", "setting": "[5]", "result": "4050 ± 2070", "unit": "ng/mL"},
      {"measurement": "Minimum concentration (Cmin), median (range)", "setting": "[6]", "result": 2800, "unit": "ng/mL"},
      {"measurement": "Tmax", "setting": "[7]", "result": 6, "unit": "h"},
      {"measurement": "Remaining % after ten days in the autosampler", "setting": "[8]", "result": 99.8, "unit": "%"}
    ]},
    {"smiles": "CC(C)(C)c1cc(C(C)(C)CO)c(O)cc1NC(=O)c1c[nH]c2ccccc2c1=O", "note": "[M1-IVA, hydroxymethyl ivacaftor]", "values": [
      {"measurement": "Potency of metabolite relative to parent compound", "setting": "CFTR", "result": "1/6"}
    ]}
  ]
}
